Measurements from patent publication US20220267753A1, “RATIONAL THERAPEUTIC TARGETING OF ONCOGENIC IMMUNE SIGNALING STATES IN MYELOID MALIGNANCIES VIA THE UBIQUITIN CONJUGATING ENZYME UBE2N” (CHILDREN'S HOSPITAL MEDICAL CENTER, priority 2019, published 2022).

How the values were obtained:
MOLM-13 cells = assay: Ubiquitin-enrichment screen by mass spectrometry; type: cell-based, human; details: 2 μM
Description: Details of the ubiquitin-enrichment screen are described herein. Briefly, MOLM-13 cells were treated for 24 hr. with 2 μM of UC-764864. Ubiquitin-related peptide enrichment was performed by using ubiquitin remnant motif (K-ε-GG) antibody-conjugated beads (Cell Signaling Technology, Danvers, Mass.) following the manufacturer's instructions. Tryptic peptides were loaded onto the beads, and then ubiquitin-conjugated peptides were eluted from the bead. Nanoliquid chromatography coupled to electrospray tandem mass spectrometry (nanoLC-ESI-MS/MS) analyses were performed on a TripleTof 5600+ mass spectrometer (Sciex; Concord, Ontario, Canada) coupled with a nanoLC-ultra nanoflow system (Eksigent; Dublin, Calif.) in data dependent acquisition (DDA) or data independent acquisition (DIA) modes for Sequential Window Acquisition of all Theoretical mass spectra (SWATH-MS) analysis.
MOLM-13 cells were treated for 24 hours with 2 μM of UC-764864. […] To reduce redundant peptide sequencing, former MS/MS-analyzed candidate ions were excluded after its first occurrence for 12 s. The DDA data was recorded using Analyst-1T (v.1.7) software. […]

In vivo toxicity study = details: 4 doses of 25 mg/kg over 2 weeks, mice
Description: PK studies of UC-764864 and UC-764865 were performed in C57BL/6 mice (18-22 g). 10 mg/kg and 20 mg/kg UC-764864 or UC-764865 was administered through intraperitoneal (i.p.) injection. After dosing, blood samples were collected at 15 min, 30 min, 1 h, 2 h, 4 h, 8 h, 12 h, and 24 h. Samples from three animals were collected at each time point. Approximately 500 μL of blood was collected via orbital vein from each mouse, processed, and analyzed by LC-MS. Standard curves were prepared in blood covering the concentration range of 50-3,0000 ng/mL. Using the data from the standard curves, calibration curves were generated for PK tests. For in vivo toxicity studies, 25 mg/kg UC-764864, UC-764865, 10 mg/kg NSC697923 or vehicle control (methocel 0.5% tween-20 0.2%,0.1% DMSO in water) were administered in B6.SJL-Ptprca Pepcb/BoyJ mice (n=3/group) through i.p. injection. For 2 weeks the mice received 4 doses of each compound. Routine body weight and blood counts were performed. At the end of the study, tissues were harvested, placed in 10% buffered formalin, stained with hematoxylin and eosin (H&E) and examined by a pathologist.

Compound | ubiquitination levels of other Ub-conjugating enzymes (MOLM-13 cells; MOLM-13) | ubiquitination of UBE2N at Lys-92 (MOLM-13 cells; MOLM-13, P<0.01) | body weight, hematologic blood parameters, survival (In vivo toxicity study) | histological evaluation of several tissues (In vivo toxicity study) | tolerability after repeated administration (In vivo toxicity study)
CCc1ccc(C(=O)C=CSc2nc3ccc(C)cc3[nH]2)cc1 [UC-764864, 1-(4-ethylphenyl)-3-[(6-methyl-1H-benzimidazol-2-yl)sulfanyl]prop-2-en-1-one] | did not significantly alter | significantly reduced | – | – | –
COc1ccc(C(=O)C=CSc2nc3ccc(C)cc3[nH]2)cc1 [UC-764865, 1-(4-methoxyphenyl)-3-[(6-methyl-1H-benzimidazol-2-yl)sulfanyl]prop-2-en-1-one] | – | – | did not significantly affect | no evidence of overall tissue toxicity | no abnormalities noted
